Measurements taken from patent US6242216A, “Nucleic acids encoding a functional human purinoreceptor P2X2 and P2X4, and methods of production and use thereof” (Abbott Laboratories, priority 1998, dated 2001).
Values joined by “and” are separate entries in the source; they are usually repeats but may differ in a detail not shown here. Identical values can stand only once. Like-named read-outs stand apart in the source and are kept apart here.

What was measured:
[1] = test system: hP2X2d; assay: Two-electrode voltage-clamp of Xenopus oocytes injected with hP2X2d RNA; assay type: cell-based, human; settings: 30 μM ATP, transient external application
Experimental: (§1) To assess function of the human P2X2 receptors, RNA was synthesized from the clones using the T7 bacterial promoter present on the pCRscript vector and reagents from Ambion (Message Machine; Ambion, Inc., Austin Tex.).
(§2) Adult female frogs (Xenopus laevis) were anesthetized with 0.2% tricaine before surgery. During surgery, sections of one ovary were removed and oocytes were denuded of overlying follicle cells by agitation for 1-2 hours in 2 mg/ml collagenase (Sigma type IA) in low-Ca^2+ Barth's solution containing (in mM): 88 NaCl, 2.5 KCl, 1.0 MgCl2 10 Na-HEPES (pH 7.4) plus 100 μg/ml gentamicin. Selection of stage V and VI oocytes was begun after approximately 50% of the cells were denuded. Cytoplasmic injections of 50 ng hP2X2a-d RNA were performed on denuded oocytes using a glass microelectrode. Only one receptor subtype RNA was injected per cell. […]
(§3) Transmembrane currents were recorded using two-electrode voltage-clamp techniques with an Axoclamp-2 A amplifier, and were collected and analyzed using pCLAMP software (Axon Instruments). […] Responses to ATP and α,βme-ATP were routinely recorded at room temperature while the oocyte membrane was voltage-clamped at -60 mV. […]

[2] = target: T1, hP2X2b receptors (Homo sapiens, UniProt Q9UBL9); assay: Two-electrode voltage-clamp of Xenopus oocytes expressing hP2X2b receptors; assay type: cell-based
T1 construct: expressed in transfected cells; host or cells: Xenopus laevis oocytes, cytoplasmic injection of 50 ng in vitro transcribed RNA, one subtype per cell
T1 sequence (Q9UBL9 1-404 isoform Q9UBL9-2): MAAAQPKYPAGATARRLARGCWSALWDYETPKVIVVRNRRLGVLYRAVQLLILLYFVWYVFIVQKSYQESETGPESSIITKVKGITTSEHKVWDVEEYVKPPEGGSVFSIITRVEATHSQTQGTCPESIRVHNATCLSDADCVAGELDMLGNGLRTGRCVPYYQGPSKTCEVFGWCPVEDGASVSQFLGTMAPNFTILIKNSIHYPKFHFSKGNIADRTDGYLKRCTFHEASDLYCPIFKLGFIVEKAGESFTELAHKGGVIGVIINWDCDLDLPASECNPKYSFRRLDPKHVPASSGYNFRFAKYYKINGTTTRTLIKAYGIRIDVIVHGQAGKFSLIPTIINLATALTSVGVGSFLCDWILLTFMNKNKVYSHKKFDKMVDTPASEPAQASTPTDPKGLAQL
Experimental: as §1
(§4) Adult female frogs (Xenopus laevis) were anesthetized with 0.2% tricaine before surgery. During surgery, sections of one ovary were removed and oocytes were denuded of overlying follicle cells by agitation for 1-2 hours in 2 mg/ml collagenase (Sigma type IA) in low-Ca^2+ Barth's solution containing (in mM): 88 NaCl, 2.5 KCl, 1.0 MgCl2 10 Na-HEPES (pH 7.4) plus 100 μg/ml gentamicin. Selection of stage V and VI oocytes was begun after approximately 50% of the cells were denuded. Cytoplasmic injections of 50 ng hP2X2a-d RNA were performed on denuded oocytes using a glass microelectrode. Only one receptor subtype RNA was injected per cell. Oocytes were used for recording 1-2 days after injection and were maintained at 16-19° C. in normal Barth's solution (incubation medium in mM): 90 NaCl, 1.0 KCl, 0.66 NaNO3, 0.74 CaCl2, 0.82 MgCl2, 2.4 NaHCO3, 2.5 Na-pyruvate, 10 Na-HEPES (pH 7.4) plus 100 μg/ml gentamicin.
(§5) The standard recording solution contained (in mM): 96 NaCl, 2.0 KCl, 1.8 BaCl2, 1.0 MgCl2, 5.0 Na-pyruvate, and 5.0 Na-HEPES (pH 7.4). BaCl2 was replaced with CaCl2 (1 mM) in some experiments without significant effects on the pharmacological properties of the receptors. All oocyte solutions were diluted in distilled H2 O from 10×stock solutions. Concentrated stocks of agonists and antagonists were made in distilled H2 O and then serially diluted in recording solution to desired final concentrations. All chemicals and agonists (ATP and α,βme-ATP) were obtained from Sigma Chemical Company.
(§6) Transmembrane currents were recorded using two-electrode voltage-clamp techniques with an Axoclamp-2 A amplifier, and were collected and analyzed using pCLAMP software (Axon Instruments). Electrodes (1.5-2.0 M'.OMEGA.) were filled with 120 mM KCl. Responses to ATP and α,βme-ATP were routinely recorded at room temperature while the oocyte membrane was voltage-clamped at -60 mV. […]

[3] = target: T2, human P2X4 receptor (Homo sapiens, UniProt Q99571); assay: Two-electrode voltage-clamp of Xenopus oocytes expressing recombinant human P2X4 receptors; assay type: cell-based
T2 construct: expressed in transfected cells; host or cells: Xenopus laevis oocytes, nuclear injection of P2X4-pCDNA3.1 DNA (10 ng) or cytoplasmic injection of RNA (50 ng)
T2 sequence (Q99571 1-388): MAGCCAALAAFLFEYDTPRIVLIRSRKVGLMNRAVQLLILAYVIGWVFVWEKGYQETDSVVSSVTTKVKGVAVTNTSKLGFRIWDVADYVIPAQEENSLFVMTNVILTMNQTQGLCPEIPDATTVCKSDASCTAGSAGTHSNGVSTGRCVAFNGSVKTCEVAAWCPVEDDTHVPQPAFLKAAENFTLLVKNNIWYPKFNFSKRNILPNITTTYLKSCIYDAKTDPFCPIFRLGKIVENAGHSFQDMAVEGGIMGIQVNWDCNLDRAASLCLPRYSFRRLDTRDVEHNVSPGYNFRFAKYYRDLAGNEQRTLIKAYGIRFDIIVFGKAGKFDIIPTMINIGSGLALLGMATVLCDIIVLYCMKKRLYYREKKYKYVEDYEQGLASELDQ
Experimental: Responses were measured at a holding potential of -60 mV in modified Barth's solution containing 10 mM BaCl2 and lacking CaCl2 and MgCl2. However, in some experiments, the cell potential was intentionally varied in order to determine the response current-voltage relationship. Agonist was applied briefly using a computer-controlled solenoid valve and a push/pull applicator positioned to within 200-400 μm from the oocyte. Responses were recorded by computer in synchrony with agonist application. Antagonists were included with agonist in the push/pull applicator and were applied to the bath by superfusion for at least 3 minutes before application of agonist. Responses were quantified by measuring the peak amplitude.
The clone was grown up and prepared in large scale using the QlAgen maxiprep DNA preparation system according to the manufacturer's instructions. The DNA was ethanol precipitated and resuspended in TE buffer. For RNA production, the P2X4 -pCNDA3.1 cvonstruct was linearized by digestion with the restriction enzyme Notl and P2X4 messenger RNA was produced using the T7 promoter in this vector and the Ambion mMessage mMachine in vitro transcription kit according to the manufacturer's instructions.
For functional analysis of human P2X4 receptors, 10 ng of human P2X4 receptor DNA prepared as described above was injected into the nucleus of Xenopus oocytes. Alternatively, 50 ng of human P2X4 receptor RNA prepared as described above was injected into the ooxyte cytoplasm. Oocytes were incubated in normal Barth's solution containing 100 μg/ml gentamicin for 2-7 days following injection. The response to 10 μM ATP was then recorded.

[4] = test system: hP2X2c; assay: Two-electrode voltage-clamp of Xenopus oocytes injected with hP2X2c RNA; assay type: cell-based, human; settings: 30 μM ATP, transient external application
Experimental: as §1, §2, §3

[5] = target: T3, hP2X2a receptors (Homo sapiens, UniProt Q9UBL9); assay: Two-electrode voltage-clamp of Xenopus oocytes expressing hP2X2a receptors; assay type: cell-based
T3 construct: expressed in transfected cells; host or cells: Xenopus laevis oocytes, cytoplasmic injection of 50 ng in vitro transcribed RNA, one subtype per cell
T3 sequence (Q9UBL9 1-471): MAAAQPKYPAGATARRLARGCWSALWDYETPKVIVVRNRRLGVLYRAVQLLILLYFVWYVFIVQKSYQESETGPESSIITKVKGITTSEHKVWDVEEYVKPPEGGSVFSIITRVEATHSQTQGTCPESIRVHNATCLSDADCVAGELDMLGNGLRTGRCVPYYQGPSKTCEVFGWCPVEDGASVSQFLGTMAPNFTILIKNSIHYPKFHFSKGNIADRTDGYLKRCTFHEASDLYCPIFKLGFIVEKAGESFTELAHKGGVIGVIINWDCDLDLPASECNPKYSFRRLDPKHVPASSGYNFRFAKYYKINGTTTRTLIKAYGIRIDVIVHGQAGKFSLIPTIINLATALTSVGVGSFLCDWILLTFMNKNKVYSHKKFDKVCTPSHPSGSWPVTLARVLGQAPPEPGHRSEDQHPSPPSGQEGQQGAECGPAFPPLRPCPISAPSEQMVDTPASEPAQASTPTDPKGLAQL
Experimental: as §1, §4, §5, §6

## Nc1ncnc2c1ncn2[C@@H]1O[C@H](COP(=O)(O)OP(=O)(O)OP(=O)(O)O)[C@@H](O)[C@H]1O [ATP]
[1]
  agonist effect on receptor current: had no effect
[2]; oocytes expressing hP2X2b, three cells
  Hill coefficient (nH): 1.5
[2]; oocytes expressing hP2X2b, three cells, -60 mV, read-out: mean ATP EC50 (peak inward current)
  EC50: 20000 nM
[3]; DNA-injected oocytes, concentration-response 0.1-1000 μM ATP
  EC50: ~2000 nM and 1000 to 2000 nM
[3]; RNA-injected oocytes, read-out: ATP EC50
  EC50: 1000 to 2000 nM
[3]; oocytes injected with human P2X4 receptor DNA
  mixed-conductance cation current on extracellular application of ATP: 100-1000 nA
[4]
  agonist effect on receptor current: had no effect
[5]; oocytes expressing hP2X2a, four cells
  Hill coefficient (nH): 1.5
[5]; oocytes expressing hP2X2a, four cells, -60 mV, read-out: mean ATP EC50 (peak inward current)
  EC50: 16000 nM

## Cc1ccc(C(=O)Nc2ccc(S(=O)(=O)O)c3cc(S(=O)(=O)O)cc(S(=O)(=O)O)c23)cc1NC(=O)c1cccc(NC(=O)Nc2cccc(C(=O)Nc3cc(C(=O)Nc4ccc(S(=O)(=O)O)c5cc(S(=O)(=O)O)cc(S(=O)(=O)O)c45)ccc3C)c2)c1 [suramin]
[3]; DNA-injected oocytes, suramin 10 μM, ATP 10 μM
  antagonism of ATP-induced currents: failed to depress
[3]; RNA-injected oocytes, suramin 1 μM, ATP 3 μM
  antagonism of ATP responses: failed to depress
[3]; RNA-injected oocytes, suramin 10 μM, ATP 3 μM
  antagonism of ATP responses: failed to depress
[3]; RNA-injected oocytes, suramin 100 μM, ATP 3 μM, read-out: ATP response remaining, % of control
  remaining activity at 100 µM: ~80%

## Nc1ncnc2c1ncn2[C@@H]1O[C@H](COP(=O)(O)CP(=O)(O)OP(=O)(O)O)[C@@H](O)[C@H]1O [αβMe-ATP, α,β-methylene-ATP]
[2]; 100 μM agonist, hP2X2b
  agonist effect on receptor current: had no effect
[3]; RNA-injected oocytes, read-out: maximal current relative to maximal ATP current
  Emax: 20 to 25%
[5]; 100 μM agonist, hP2X2a
  agonist effect on receptor current: had no effect
